These results are taken from patent US20070111966A1, “Method for the treatment and/or prevention of urinary disorders” (priority 2005, published 2007).

Test [1] has as its system Sprague-Dawley rats. Kind of test: Example 1: diuresis after oral gavage of diuretic polyols. Format: in vivo. The following applies: for Diuresis 45 min / Diuresis 1 h 35 min / Diuresis 3 h / Diuresis 5 h / Diuresis 7 h / Cumulative diuresis over 24 h / Diuresis Before gavage: means on ten rats; for Diuresis 45 min: control A 0.9; for Diuresis 1 h 35 min / Diuresis 7 h: control A 0.6; for Diuresis 3 h: control A 0.4; for Diuresis 5 h: control A 0.7; for Cumulative diuresis over 24 h: control A 11.7; for Diuresis Before gavage: control A 3.2. The procedure:
(§1) A batch of rats were orally administered doses of diuretic polyols so as to measure the diuretic effect of said polyols and their possible influence on the amount of water drunk. The study was carried out on a batch of thirty rats, for 4 days, and the trial doses were administered at a rate of 2 ml per animal and per day of solutions at 250 g/litre of polyols. Water is distributed to the animals ad libitum. The amounts of urine output and of drink consumed are measured by weighing.
(§2) The amounts of drink are expressed in grams per animal and per day. Diuresis is expressed in millilitres as a function of time. • Batch A: control batch • Batch B: erythritol gavage • Batch C: mannitol gavage • Batch D: isosorbide gavage • Batch E: 1/1 isosorbide-mannitol mixture
Diuresis (Means on Ten Rats, in Millilitres)

Test [2] deals with Sprague-Dawley rats. Kind of test: Example 1: consumption of drink after oral gavage of diuretic polyols. Format: in vivo. Conditions: for water consumption compared with the control (in words): after polyol gavage; for water consumption over four days: control batch A 11.2. The procedure:
as §1, §2
Consumption of Drink (Means on Ten Rats)

Setting [3] is: gavage 2 ml per animal and per day of 250 g/litre solution, means on ten rats.

For the molecule `O[C@@H]1CO[C@H]2[C@@H]1OC[C@@H]2O` [D (isosorbide), isosorbide], in test [1], the “Diuresis 45 min” value stood at 1.5 millilitres, the “Diuresis 1 h 35 min” value was determined as 1.1 millilitres, the “Diuresis 3 h” value was 1.2 millilitres and the “Diuresis 5 h” value is reported as 1.1 millilitres. In test [1], the “Diuresis 7 h” value is 0.6 millilitres, the “Cumulative diuresis over 24 h” value amounted to 13.0 millilitres and the “Diuresis Before gavage” value was 2.4 millilitres. The “water consumption compared with the control (in words)” value in test [2] is “very slightly greater than the control”. Moreover, in test [2] (setting [3]), the “water consumption over four days” value came to 13.1 g/animal/day.

On to `OC[C@@H](O)[C@@H](O)CO` [B (erythritol), erythritol], for which, in test [1], the “Diuresis 45 min” value worked out at 0.21 millilitres, the “Diuresis 1 h 35 min” value came to 0.99 millilitres, the “Diuresis 3 h” value turned out to be 1.38 millilitres and the “Diuresis 5 h” value came out at 1.21 millilitres. In addition, in test [1], the “Diuresis 7 h” value amounted to 0.83 millilitres, the “Cumulative diuresis over 24 h” value worked out at 18.43 millilitres and the “Diuresis Before gavage” value turned out to be 1.02 millilitres. The “time from which an increase in diuresis is observed” value in test [1] (after gavage) was no less than 3 h. The “water consumption compared with the control (in words)” value in test [2] was “not greater than the control”. Moreover, the water consumption in test [2] (gavage 2 ml per animal and per day of 250 g/litre solution, means on ten rats, control batch A 24.8) is listed as 17.9 g/animal/day.

Consider `OC[C@@H](O)[C@@H](O)[C@H](O)[C@H](O)CO` [C (mannitol), mannitol], for which, in test [1], the “Diuresis 45 min” value turned out to be 0.3 millilitres, the “Diuresis 1 h 35 min” value is on record as 0.3 millilitres, the “Diuresis 3 h” value is on record as 0.7 millilitres and the “Diuresis 5 h” value stood at 0.5 millilitres. In test [1], the “Diuresis 7 h” value worked out at 1.3 millilitres, the “Cumulative diuresis over 24 h” value stood at 16.5 millilitres and the “Diuresis Before gavage” value is 3.0 millilitres. In test [2], the “water consumption compared with the control (in words)” value is recorded as “very slightly greater than the control”. The “water consumption over four days” value in test [2] (setting [3]) was 13.9 g/animal/day.
